Data set [1] addresses T1, SYK lysate (Homo sapiens, UniProt P43405).
T1 construct: Stimulation of Ramos Cells with Anti-IgM Ab to Produce Syk & Preparation of Lysates; endogenous in cells; host or cells: Ramos B cells (human Burkitt's lymphoma, clone 296.4C10, ATCC), stimulated with anti-IgM and lysed in 1% Triton X-100
Put plainly: Basic Syk Enzyme Activity. The format is biochemical. Particulars: read-out: average pIC50 (converted). How it is done:
3 μl of SYK lysate diluted 16-fold in assay buffer (20 mM TRIS pH 7.4, 0.01% BSA, 0.1% Pluronic F-68) was added to wells containing 0.1 μl of various concentrations of compound or DMSO vehicle (1.7% final) in a Greiner low volume 384 well black plate. Following 15 min pre-incubation at room temperature, the reaction was initiated by the addition of 3 μl of substrate reagent containing Y7 Sox peptide, (Invitrogen Cat. # KNZ3071, 5 μM final), ATP (35 μM final) and MgCl2 (10 mM final) in assay buffer. The reaction was incubated at room temperature before measuring fluorescence intensity (λex 360/λem 485) on an Envision plate reader (Perkin Elmer Life Sciences, Waltham, Mass., USA) at 15 min and 55 min post-substrate addition.
Ramos B Cells (human B cells of Burkitt's lymphoma, clone 296.4C10, ATCC) were cultured in suspension in growth medium (RPMI-1640, Sigma; supplemented with 2 mM L-glutamine, Gibco; 10 mM Hepes, Sigma; 1 mM sodium pyruvate, Sigma; 10% v/v heat-inactivated FCS, Gibco). Cells were grown in Corning Cellstacks (6360 cm^2) in 1 liter volume and viability and cell density were monitored daily. Cells were maintained at <1.5×10e6/ml and >92% viability.
Cells were stimulated at 20×10^6 cells/ml using 15 ug/ml (final concentration) anti-IgM antibody. Following harvest (as described above), a total of 4×10^9 cells were resuspended in 180 ml pre-warmed (37° C.) DPBS in a Corning 500 ml centrifuge bottle. 20 ml anti-IgM antibody at 150 ug/ml were added to each 500 ml centrifuge bottle (working stock made up in DPBS pre-warmed to 37° C.). Cells were incubated for exactly 5 min at 37° C. following the addition of anti IgM antibody. Following 5 min stimulation, 300 ml ice-cold DPBS were added to each bottle to stop the stimulation (temperature drops to ˜12° C.) then cells were centrifuged at 2000 rpm (Sorvall Legend RT+ centrifuge—pre-chilled to 4° C.). Cells were washed by resuspension in ice-cold DPBS and centrifugation as above. The cell pellet was then lysed in ice-cold lysis buffer containing 1% triton-x-100 at a ratio of 150 ul/1×10^7 cells (i.e. 48 ml lysis buffer). Following the addition of lysis buffer, the cells were pipetted up & down & kept on ice for 15 min. The clarified lysate was then obtained by centrifugation (Sorvall Evolution RC (SLA-1500 rotor, ˜20,000 g (˜14,500 rpm), 45 min, 4° C.).
Lysate was aliquoted, snap-frozen on dry-ice & stored at −80° C. prior to assay.
Lysis Buffer: 50 mM TRIS pH7.5+150 mM NaCl+1% Triton-X-100+2 mM EGTA+1:100 dilution inhibitor cocktails (phosphatase inhibitor cocktail set II, calbiochem cat no. 524625 & protease inhibitor cocktail set V, calbiochem cat no. 539137)

For data set [2], the target named is T2, hERG (Homo sapiens, UniProt Q12809).
T2 construct: expressed in transfected cells; host or cells: CHO-K1 cells stably expressing human hERG; membrane fraction
Put plainly: Cy3B Dofetilide Fluoro-Ligand Binding Assay for hERG. The note with it: membranes of CHO-K1 cells that express hERG, pH 7.4, probe Cy3b-Dofetilide fluoro-ligand, 1.0 nM, hERG-expressing CHO-K1 membranes. How it is done: Compound potencies were determined by a fluoro-ligand^§ (Cy3b-Dofetilide) fluorescence polarisation assay.
hERG-expressing CHO-K1 membranes* (60 μg/ml) were incubated with 1.0 nM fluoro-ligand^§, in assay buffer (25 mM HEPES, 1.2 mM MgCl2, 100 mM KCl and 0.1% pluronic, pH adjusted to 7.4 using 5M KOH). The final potassium concentration in the assay was 100 mM. After 70 min mixing at room temperature, in the dark, 10 μl was dispensed into each well of a black LV Greiner 384-well plate containing 0.1 μl of test compound in DMSO. The plates were left to equilibrate for 2 h before reading on an Acquest™/Analyst™ imager. pIC50 data were generated using from an 11-point inhibition curve (top assay concentration of 50 μM and a 1:3 step-dilution), a […] curve-fit being applied using ABase and XC50 to analyse data and generate curve fits.
Chinese Hamster Ovary (CHO) cells stably expressing the human hERG receptor were grown to 80% confluency before being harvested by trypsinisation and subsequent centrifugation at 500 g for 10 min. Cell pellets were frozen at −80 C before membrane production. The frozen pellet was thawed on ice, re-suspended and homogenised in 10 volumes of membrane buffer (50 mM HEPES, pH 7.4, 1 mM EDTA, 1 mM PMSF, 2×10^-6M Pepstatin A). The membrane suspension was centrifuged for 20 min at 500 g, the pellet discarded and the supernatent spun again at 48,000 g for 30 min. Following the second centrifugation the remaining pellet containing the membrane fraction was re-suspended in an appropriate volume (4 ml for each ml of frozen cell pellet) and assayed for protein concentration.

Data set [3] has as its system Whole blood B cells. Put plainly: CD69 Whole Blood Assay. Particulars: Homo sapiens, B-cell, anti-IgM stimulated. The format is cell-based. How it is done: Whole blood B cells are stimulated ex-vivo using anti-IgM. […] The subsequent autophosphorylation of Syk leads to initiation of a signalling cascade resulting in B cell activation as indicated by expression of the activation marker CD69 on the cell surface. CD20/CD69+ve whole blood B cells are detected by flow cytometry.
100 μl heparinised human blood was added to a 5 ml polypropylene tube containing 1 μl appropriately diluted compound solution and incubated for 25 min at 37° C. with 5% CO2. B cells were stimulated with 10 μl Fab′2 fragments of goat anti-human IgM (43 μg/ml final concentration) for a further 3.5 h under the conditions previously described. The red blood cells were lysed and all other cells fixed by the addition of 2 ml Lyse/Fix buffer for 10 min at room temperature.
The cells were stained using a cocktail of mouse anti-human CD20 FITC and mouse anti-human CD69 PE conjugated antibodies. CD20/CD69+ve B cells present in the sample were detected by flow cytometry.
Compound was prepared as a 10 mM stock in DMSO, further diluted down in DMSO to 1 mM and a dilution series prepared in DMSO using 7 successive 3-fold dilutions to give the final concentration range to be tested of 1×10^−5 to 4.57×10^−9M. Compound dilutions were prepared using the Biomek 2000 automated robotic pipetting system.

Data set [4] deals with allergic rhinitis. The note with it: phase II; cited from earlier work.
In data set [5] the test system is allergic rhinitis. Particulars: intranasal, phase I/II; cited from earlier work.
The test system of data set [6] is B-Cell non-Hodgkin's lymphoma (NHL). Particulars: cited from earlier work.
For data set [7], the system named is B lymphoma (BKS-2). Particulars: mouse, in vivo; cited from earlier work.
[8] abbreviates: as the free base, read-out: average IC50.
Setting [9] is: form not stated (first list), read-out: average pIC50 (converted).
[10] abbreviates: as the free base, read-out: average pIC50 (converted).
The mark [11] stands for this setting: hydrochloric acid salts, read-out: average IC50.
Where [12] appears, read: hydrochloric acid salts, read-out: average pIC50 (converted).

Structures are written as SMILES. Where two headings read alike, the source gives them in different places.

T2 sequence (Q12809 whole entry): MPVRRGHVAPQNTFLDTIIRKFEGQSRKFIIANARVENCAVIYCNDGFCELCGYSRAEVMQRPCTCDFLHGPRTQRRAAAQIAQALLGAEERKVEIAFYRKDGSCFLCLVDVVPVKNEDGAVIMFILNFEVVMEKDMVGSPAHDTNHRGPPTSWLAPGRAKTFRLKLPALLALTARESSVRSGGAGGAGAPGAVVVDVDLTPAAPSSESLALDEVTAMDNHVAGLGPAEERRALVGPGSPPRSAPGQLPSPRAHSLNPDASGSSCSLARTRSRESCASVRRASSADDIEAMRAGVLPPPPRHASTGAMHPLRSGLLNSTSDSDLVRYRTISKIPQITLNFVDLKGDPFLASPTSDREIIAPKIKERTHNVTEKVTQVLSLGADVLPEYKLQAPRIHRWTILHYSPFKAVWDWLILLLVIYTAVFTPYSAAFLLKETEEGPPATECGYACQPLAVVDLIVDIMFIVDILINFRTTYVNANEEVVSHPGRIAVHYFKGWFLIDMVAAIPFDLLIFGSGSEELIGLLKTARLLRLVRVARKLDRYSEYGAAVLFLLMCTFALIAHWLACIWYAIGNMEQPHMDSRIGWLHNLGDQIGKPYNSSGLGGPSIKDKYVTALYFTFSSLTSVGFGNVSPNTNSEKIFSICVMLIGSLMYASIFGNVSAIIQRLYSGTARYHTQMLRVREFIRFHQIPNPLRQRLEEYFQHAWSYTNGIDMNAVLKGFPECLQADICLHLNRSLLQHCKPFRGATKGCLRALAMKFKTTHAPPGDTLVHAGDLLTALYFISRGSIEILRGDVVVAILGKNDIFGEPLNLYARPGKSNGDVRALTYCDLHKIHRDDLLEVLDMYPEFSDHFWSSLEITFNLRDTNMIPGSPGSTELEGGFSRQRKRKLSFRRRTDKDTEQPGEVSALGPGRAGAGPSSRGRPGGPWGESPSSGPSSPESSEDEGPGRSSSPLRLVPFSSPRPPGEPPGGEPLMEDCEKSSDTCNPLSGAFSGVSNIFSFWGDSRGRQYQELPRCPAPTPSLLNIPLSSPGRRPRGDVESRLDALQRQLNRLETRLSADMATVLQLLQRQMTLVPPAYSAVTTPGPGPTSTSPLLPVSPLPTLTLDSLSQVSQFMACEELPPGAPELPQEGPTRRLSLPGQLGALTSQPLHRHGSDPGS

With `FC1(CNc2nc(-c3cnn(C4CCCC4)c3)cc3ncccc23)CCCNC1` (racemic) [Example 8, 7-(1-cyclopentyl-1H-pyrazol-4-yl)-N-[(3-fluoro-3-piperidinyl)methyl]-1,6-naphthyridin-5-amine], the IC50 in data set [1] (as the free base) was ≤ 100 nM; in data set [3] (setting [8]), < 1000 nM; in data set [3] (setting [10]), ≤ 1000 nM. For the same molecule, the IC50 at 2 h in data set [2] (setting [8]) and in data set [2] (setting [9]) was > 10000 nM in each case.
As to `FC1(CNc2nc(-c3cnn(Cc4ccccc4)c3)cc3ncccc23)CCCNC1` (racemic) [Example 10, N-[(3-fluoro-3-piperidinyl)methyl]-7-[1-(phenylmethyl)-1H-pyrazol-4-yl]-1,6-naphthyridin-5-amine], the IC50 is ≤ 100 nM in data set [1] (as the free base), < 1000 nM in data set [3] (setting [8]) and ≤ 1000 nM in data set [3] (setting [10]). In addition, the IC50 at 2 h in data set [2] (setting [8]) and in data set [2] (setting [9]) was > 10000 nM in each case.
With `FC(F)(F)Cn1cc(-c2cc3ncccc3c(NCC3(F)CCCNC3)n2)cn1` (single isomer, unassigned) [Example 9A, N-{[3-fluoro-3-piperidinyl]methyl}-7-[1-(2,2,2-trifluoroethyl)-1H-pyrazol-4-yl]-1,6-naphthyridin-5-amine], the IC50 in data set [1] (as the free base) was ≤ 100 nM; in data set [3] (setting [8]) it was < 1000 nM; in data set [3] (setting [10]), ≤ 1000 nM. In addition, the IC50 at 2 h in data set [2] (setting [8]) and in data set [2] (setting [9]) was > 10000 nM each time.
With `CC(C)n1cc(-c2cc3ncccc3c(NCC3(F)CCCNC3)n2)cn1` (single isomer, unassigned) [Example 11A, N-{[3-fluoro-3-piperidinyl]methyl}-7-[1-(1-methylethyl)-1H-pyrazol-4-yl]-1,6-naphthyridin-5-amine], the IC50 is ≤ 100 nM in data set [1] (as the free base), < 1000 nM in data set [3] (setting [8]) and ≤ 1000 nM in data set [3] (setting [10]). The IC50 at 2 h in data set [2] (setting [8]) and in data set [2] (setting [9]) was > 10000 nM each time.
For `CC(C)(O)Cn1cc(-c2cc3ncccc3c(NC[C@]3(F)CCCNC3)n2)cn1` [Example 5, 1-{4-[5-({[(3S)-3-fluoro-3-piperidinyl]methyl}amino)-1,6-naphthyridin-7-yl]-1H-pyrazol-1-yl}-2-methyl-2-propanol], the results for the IC50 in data set [1] (as the free base) and in data set [3] (setting [10]) were ≤ 100 nM and ≤ 1000 nM, respectively. For the same molecule, the IC50 at 2 h in data set [2] (setting [8]) and in data set [2] (setting [9]) was > 10000 nM throughout.
`OCCn1cc(-c2cc3ncccc3c(NC[C@]3(F)CCCNC3)n2)cn1` [Example 6, 2-{4-[5-({[(3S)-3-fluoro-3-piperidinyl]methyl}amino)-1,6-naphthyridin-7-yl]-1H-pyrazol-1-yl}ethanol]: the IC50 in data set [1] (hydrochloric acid salts) was ≤ 316 nM; in data set [3] (setting [11]) it was < 1000 nM; in data set [3] (setting [12]), ≤ 1000 nM. Moreover, the figures for the IC50 at 2 h in data set [2] (setting [11]) and in data set [2] (setting [12]) were > 20000 nM and > 10000 nM, respectively.
As to `COCCn1cc(-c2cc3ncccc3c(NC[C@]3(F)CCCNC3)n2)cn1` [Example 7, N-{[(3S)-3-fluoro-3-piperidinyl]methyl}-7-{1-[2-(methyloxy)ethyl]-1H-pyrazol-4-yl}-1,6-naphthyridin-5-amine], the IC50 is ≤ 100 nM in data set [1] (as the free base), < 1000 nM in data set [3] (setting [8]) and ≤ 1000 nM in data set [3] (setting [10]). The IC50 at 2 h in data set [2] (setting [8]) and in data set [2] (setting [9]) was > 10000 nM in each case.
Turning to `Oc1cccc(Nc2ncc(F)c(Nc3cccc(O)c3)n2)c1` [Example R112], the efficacy versus placebo entry in data set [4] was “lack of efficacy”. In data set [5], the PGD2 result is on record as “statistically significant decrease” and the clinical safety result is “safe across a range of indicators”.
Regarding `COc1cc(Nc2ncc(F)c(Nc3ccc4c(n3)N(COP(=O)(O)O)C(=O)C(C)(C)O4)n2)cc(OC)c1OC` [Example R788, fostamatinib disodium], the therapeutic benefit entry in data set [6] (patients with DLBCL and CLL/SLL) is listed as “therapeutic benefit”. Moreover, in data set [6] (patients with relapsed or refractory B-Cell NHL), the tolerability entry was “well-tolerated”.
Consider `COc1cc(/C=C/C(=O)CC(=O)/C=C/c2ccc(O)c(OC)c2)ccc1O` [curcumin], for which, in data set [7], the “tumour burden as measured by the total splenocyte number” value is “significant reduction”.

Values taken from patent publication US8633319B2, “7-(1H-pyrazol-4-yl)-1,6-naphthyridine compounds as Syk inhibitors” (Glaxo Group Limited, priority 2010, dated 2014).
